For one compound, IC50 results are on record in BindingDB's records for patent US20240190892 (Merck Sharp & Dohme, 2024).

Some results are limits rather than exact numbers.

One test deals with Plasma kallikrein (Homo sapiens, UniProt P03952). Nature of the test: Plasma Kallikrein Assay. On the procedure: (§1) The effectiveness of a compound of the present invention as an inhibitor of plasma kallikrein can be determined using a relevant purified serine protease, and an appropriate synthetic substrate. The rate of hydrolysis of the chromogenic or fluorogenic substrate by the relevant serine protease was measured both in the absence and presence of compounds of the present invention. Assays were conducted at rt or at 37° C. […] A decrease in the rate of fluorescence change in the presence of inhibitor is indicative of enzyme inhibition. Such methods are known to one skilled in the art. The results of this assay are expressed as the half-maximal inhibitory concentrations (IC50), or the inhibitory constant, Ki.
Chain of Plasma kallikrein (P03952 20-390 limits assumed): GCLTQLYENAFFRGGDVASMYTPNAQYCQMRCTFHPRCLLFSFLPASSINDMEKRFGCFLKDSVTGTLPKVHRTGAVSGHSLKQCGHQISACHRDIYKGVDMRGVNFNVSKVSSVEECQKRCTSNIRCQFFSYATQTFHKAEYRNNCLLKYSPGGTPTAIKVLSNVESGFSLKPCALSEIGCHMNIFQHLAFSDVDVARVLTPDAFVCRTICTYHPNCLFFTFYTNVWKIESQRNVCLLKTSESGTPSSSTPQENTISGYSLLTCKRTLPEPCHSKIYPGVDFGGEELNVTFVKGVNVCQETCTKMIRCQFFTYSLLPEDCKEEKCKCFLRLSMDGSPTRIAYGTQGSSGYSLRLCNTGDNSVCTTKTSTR
Chain of Plasma kallikrein (P03952 391-638 limits assumed): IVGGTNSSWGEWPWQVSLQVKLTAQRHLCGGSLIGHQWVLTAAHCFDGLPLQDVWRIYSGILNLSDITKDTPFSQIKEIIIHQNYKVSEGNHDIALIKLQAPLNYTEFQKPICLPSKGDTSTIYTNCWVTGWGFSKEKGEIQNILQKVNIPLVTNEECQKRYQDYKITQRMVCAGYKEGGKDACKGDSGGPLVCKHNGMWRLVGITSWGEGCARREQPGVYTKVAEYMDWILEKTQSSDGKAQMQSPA

The target in another test is Coagulation factor XI (Homo sapiens, UniProt P03951). The test is described as follows: Factor XIa Assay. The procedure:
as §1, with “Coagulation factor XIa” for “plasma kallikrein”

Chain of Coagulation factor XI (P03951 19-387 limits assumed): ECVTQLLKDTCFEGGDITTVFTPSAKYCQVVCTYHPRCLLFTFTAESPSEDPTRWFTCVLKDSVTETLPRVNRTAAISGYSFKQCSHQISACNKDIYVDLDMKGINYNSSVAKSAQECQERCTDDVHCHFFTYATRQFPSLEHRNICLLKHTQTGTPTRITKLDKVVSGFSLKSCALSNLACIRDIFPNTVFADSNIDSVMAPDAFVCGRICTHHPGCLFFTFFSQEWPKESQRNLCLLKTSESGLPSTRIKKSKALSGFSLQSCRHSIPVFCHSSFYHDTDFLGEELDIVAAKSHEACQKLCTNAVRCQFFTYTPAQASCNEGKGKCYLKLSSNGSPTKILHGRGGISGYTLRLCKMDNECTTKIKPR
Chain of Coagulation factor XI (P03951 388-625 limits assumed): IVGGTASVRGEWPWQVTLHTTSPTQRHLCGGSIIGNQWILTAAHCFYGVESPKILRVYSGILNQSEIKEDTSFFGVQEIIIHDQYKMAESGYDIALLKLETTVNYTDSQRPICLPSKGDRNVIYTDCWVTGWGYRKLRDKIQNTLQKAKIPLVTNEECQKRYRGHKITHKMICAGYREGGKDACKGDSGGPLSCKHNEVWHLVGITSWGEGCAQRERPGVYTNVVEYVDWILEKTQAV

As for `CC1(O)CN(c2ccc(CNC(=O)c3cncc(N4CC[C@]5(C4)OC(=O)Nc4ccc(Cl)c(F)c45)n3)cn2)C1` [US20240190892, Example 35], the IC50 is 0.0284 µM against Plasma kallikrein and no less than 10 µM on Coagulation factor XI.
